37 compounds from ChEMBL document CHEMBL5505985 (Eur J Med Chem, 2024) can be followed below.

A value given as a limit tells only on which side of the number the result lay.

In data set [1] the test system is RAW264.7. Description: Cytotoxicity activity mouse RAW264.7 cells assessed as reduction in cell viability at 10 uM incubated for 48 hrs by MTT assay. Type of data set: toxicity, cell-based. The settings on record: raw264.7, 48 h.
Data set [2] has as its system RAW264.7. Description: Cytotoxicity activity mouse RAW264.7 cells assessed as decrease in survival rate at 50 uM incubated for 48 hrs by MTT assay. The class given is toxicity, cell-based. As to conditions: raw264.7, 48 h. On the technique in general: Tetrazolium dyes change colour on reduction, which living cells bring about.
For data set [3], the target named is T1, Prostaglandin G/H synthase 2 (Homo sapiens) (UniProt P35354).
T1 sequence (whole entry): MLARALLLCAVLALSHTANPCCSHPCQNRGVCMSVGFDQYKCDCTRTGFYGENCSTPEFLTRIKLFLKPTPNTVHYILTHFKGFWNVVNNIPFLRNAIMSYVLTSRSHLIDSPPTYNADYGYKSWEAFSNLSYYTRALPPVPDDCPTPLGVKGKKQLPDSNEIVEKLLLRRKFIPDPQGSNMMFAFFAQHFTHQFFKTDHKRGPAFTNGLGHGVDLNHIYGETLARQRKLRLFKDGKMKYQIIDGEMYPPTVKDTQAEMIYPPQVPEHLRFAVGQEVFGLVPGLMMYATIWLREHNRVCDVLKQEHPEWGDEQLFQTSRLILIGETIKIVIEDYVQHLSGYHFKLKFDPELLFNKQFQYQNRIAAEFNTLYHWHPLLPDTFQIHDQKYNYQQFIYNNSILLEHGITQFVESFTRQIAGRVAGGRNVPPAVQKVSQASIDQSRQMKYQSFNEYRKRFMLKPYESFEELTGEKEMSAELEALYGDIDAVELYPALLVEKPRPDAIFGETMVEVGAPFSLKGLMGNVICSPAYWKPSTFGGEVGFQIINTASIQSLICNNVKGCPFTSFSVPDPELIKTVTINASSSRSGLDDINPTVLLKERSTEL
Description: Inhibition of human recombinant COX-2 using arachidonic acid as substrate at 10 uM pretreated for 5 mins followed by substrate addition and measured after 2 mins by fluorescence based analysis relative to control. The settings on record: time 7.0 min.

As to `Cc1ccccc1CSc1nnc(Cc2ccccc2Nc2c(Cl)cccc2Cl)o1`, in the data set with RAW264.7 [1], the Activity result was “Non-Toxic”. The same measure, in the same setting: as for `COc1ccc(C2=Nn3c(Cc4ccccc4Nc4c(Cl)cccc4Cl)nnc3SC2)cc1`, the entry is “Non-Toxic”. Regarding `Clc1ccc(C2=Nn3c(Cc4ccccc4Nc4c(Cl)cccc4Cl)nnc3SC2)cc1`, the Activity entry in the data set on RAW264.7 [2] was “Toxic”; with RAW264.7 [1] it was “Non-Toxic”. As to `CSc1nnc(Cc2ccccc2Nc2c(Cl)cccc2Cl)o1`, in the data set with RAW264.7 [1], the Activity result is given as “Non-Toxic”.

With `Cc1ccc(CSc2nnc(Cc3ccccc3Nc3c(Cl)cccc3Cl)o2)cc1`, the Activity result in the data set on RAW264.7 [1] is given as “Non-Toxic”. Same read-out and setting: as for `Clc1cccc(Cl)c1Nc1ccccc1Cc1nnc(SCc2ccc(Br)cc2)o1`, the entry is “Non-Toxic”; as for `COc1ccc(CSc2nnc(Cc3ccccc3Nc3c(Cl)cccc3Cl)o2)cc1`, “Non-Toxic”. Same read-out and setting: as for `Clc1cccc(Cl)c1Nc1ccccc1Cc1nnc2n1N=C(c1ccccc1Br)CS2`, the entry is “Non-Toxic”; as for `O=C(Cc1ccccc1Nc1c(Cl)cccc1Cl)NN1C(=O)CCC1=O`, “Non-Toxic”; as for `O=[N+]([O-])c1ccccc1C1=Nn2c(Cc3ccccc3Nc3c(Cl)cccc3Cl)nnc2SC1`, “Non-Toxic”. Consider `Clc1cccc(Cl)c1Nc1ccccc1Cc1nnc(SCc2ccncc2)o1`, for which the Activity result in the data set with RAW264.7 [2] is recorded as “Toxic”; with RAW264.7 [1], “Non-Toxic”. With `Clc1cccc(Cl)c1Nc1ccccc1Cc1nnc(SCc2cccc(Br)c2)o1`, in the data set with RAW264.7 [1], the Activity result was “Non-Toxic”. Take `O=C(Cc1ccccc1Nc1c(Cl)cccc1Cl)NN1C(=O)c2ccccc2C1=O`: the Activity result is reported as “Toxic” in the data set with RAW264.7 [2] and “Non-Toxic” in the data set on RAW264.7 [1]. As for `COc1cccc(C2=Nn3c(Cc4ccccc4Nc4c(Cl)cccc4Cl)nnc3SC2)c1`, the Activity result with RAW264.7 [1] was “Non-Toxic”. On to `CCSc1nnc(Cc2ccccc2Nc2c(Cl)cccc2Cl)o1`, for which, in the data set with RAW264.7 [1], the Activity entry is “Non-Toxic”. The same measure, in the same setting: then `CC(C)Sc1nnc(Cc2ccccc2Nc2c(Cl)cccc2Cl)o1`, with “Non-Toxic”; and `Fc1ccc(CSc2nnc(Cc3ccccc3Nc3c(Cl)cccc3Cl)o2)c(F)c1`, with “Non-Toxic”. Consider `Clc1cccc(CSc2nnc(Cc3ccccc3Nc3c(Cl)cccc3Cl)o2)c1`, for which, in data set [3], the inhibition was under 30%. The Activity entry in the data set with RAW264.7 [1] was “Non-Toxic”. With `Clc1cccc(Cl)c1Nc1ccccc1Cc1nnc2n1N=C(c1cccc(Br)c1)CS2`, the Activity entry in the data set on RAW264.7 [2] is recorded as “Toxic”; in the data set with RAW264.7 [1] it was “Non-Toxic”. With `Clc1cccc(C2=Nn3c(Cc4ccccc4Nc4c(Cl)cccc4Cl)nnc3SC2)c1`, the Activity result is given as “Toxic” in the data set with RAW264.7 [2] and “Non-Toxic” with RAW264.7 [1]. For the compound `Fc1cccc(CSc2nnc(Cc3ccccc3Nc3c(Cl)cccc3Cl)o2)c1`, the Activity entry in the data set on RAW264.7 [1] was “Non-Toxic”. Same read-out and setting: as for `Clc1cccc(Cl)c1Nc1ccccc1Cc1nnc2n1N=C(c1ccc(Br)cc1)CS2`, the entry is “Non-Toxic”. On the same count and under the same terms, as for `Clc1cccc(Cl)c1Nc1ccccc1Cc1nnc(SC2CCCCC2)o1`, the entry is “Non-Toxic”. In the case of `Clc1ccccc1CSc1nnc(Cc2ccccc2Nc2c(Cl)cccc2Cl)o1`, in data set [3], the inhibition is under 30%. Besides, the Activity result with RAW264.7 [1] is on record as “Non-Toxic”. `Cc1cccc(CSc2nnc(Cc3ccccc3Nc3c(Cl)cccc3Cl)o2)c1`: the Activity result in the data set with RAW264.7 [1] is on record as “Non-Toxic”.

For `Fc1cccc(C2=Nn3c(Cc4ccccc4Nc4c(Cl)cccc4Cl)nnc3SC2)c1`, the Activity entry in the data set on RAW264.7 [1] is “Non-Toxic”. Same read-out and setting: as for `Fc1ccccc1CSc1nnc(Cc2ccccc2Nc2c(Cl)cccc2Cl)o1`, the entry is “Non-Toxic”. Take `Fc1ccc(C2=Nn3c(Cc4ccccc4Nc4c(Cl)cccc4Cl)nnc3SC2)cc1`: the Activity result is “Toxic” in the data set with RAW264.7 [2] and “Non-Toxic” in the data set on RAW264.7 [1].

Consider `Clc1cccc(Cl)c1Nc1ccccc1Cc1nnc(SCc2ccccc2)o1`, for which, in the data set on RAW264.7 [1], the Activity entry is on record as “Non-Toxic”. Same read-out and setting: then `Clc1cccc(Cl)c1Nc1ccccc1Cc1nnc(SCC2CCCCC2)o1`, with “Non-Toxic”. Consider `Clc1ccc(CSc2nnc(Cc3ccccc3Nc3c(Cl)cccc3Cl)o2)cc1`, for which the inhibition in data set [3] is under 30%. Further, the Activity entry in the data set on RAW264.7 [1] was “Non-Toxic”. As for `Clc1cccc(Cl)c1Nc1ccccc1Cc1nnc2n1N=C(c1ccccc1)CS2`, the Activity result with RAW264.7 [1] was “Non-Toxic”. The same measure, in the same setting: as for `CCCSc1nnc(Cc2ccccc2Nc2c(Cl)cccc2Cl)o1`, the entry is “Non-Toxic”; as for `CCCCSc1nnc(Cc2ccccc2Nc2c(Cl)cccc2Cl)o1`, “Non-Toxic”; as for `O=[N+]([O-])c1ccc(C2=Nn3c(Cc4ccccc4Nc4c(Cl)cccc4Cl)nnc3SC2)cc1`, “Non-Toxic”. Same read-out and setting: as for `N#Cc1ccc(CSc2nnc(Cc3ccccc3Nc3c(Cl)cccc3Cl)o2)cc1`, the entry is “Non-Toxic”. Still for that read-out and setting: then `Fc1ccc(CSc2nnc(Cc3ccccc3Nc3c(Cl)cccc3Cl)o2)cc1`, with “Non-Toxic”.

As usually defined, the inhibition is the change of the read-out against control, counted positive when it falls.
